Assay results: patent US20250368649A1, “TETRAHYDROPYRIDOPYRIMIDINE PAN-KRAS INHIBITORS” (Mirati Therapeutics, Inc., priority 2022, published 2025)

Legend:
[1] = system: H727 cells; test: Inhibition of KRas-mediated phosphorylation of ERK (Cisbio HTRF pERK), H727 cells; assay type: cell-based; conditions: Homo sapiens; for IC50: NCI-H727, 3 h, 3 hr compound incubation, Cisbio pERK HTRF; for inhibition at 0.1 µM: NCI-H727, single point at 100 nM, 3 hrs compound incubation
[2] = target: KRas G12D (Homo sapiens, UniProt P01116, G12D); test: biochemical; conditions: Binding to KRas (IC50 nM) G12D, TR-FRET displacement, KRas G12D
Sequence of KRas G12D (P01116 1-169 isoform P01116-2 G12D): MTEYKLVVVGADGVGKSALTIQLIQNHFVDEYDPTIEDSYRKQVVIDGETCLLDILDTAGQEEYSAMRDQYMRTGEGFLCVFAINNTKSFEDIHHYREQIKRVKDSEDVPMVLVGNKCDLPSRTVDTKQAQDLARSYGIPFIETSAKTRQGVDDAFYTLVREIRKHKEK

[3] = system: A549 cells; test: Inhibition of KRas-mediated phosphorylation of ERK (Cisbio HTRF pERK), A549 cells; assay type: cell-based; conditions: Homo sapiens; for inhibition at 0.1 µM: single point at 100 nM, 3 hrs compound incubation; for IC50: A549, 3 h, 3 hr compound incubation, Cisbio pERK HTRF
[4] = target: KRas G12V (Homo sapiens, UniProt P01116, G12V); test: biochemical; conditions: Binding to KRas (IC50 nM) G12V, TR-FRET displacement, KRas G12V
Sequence of KRas G12V (P01116 1-169 isoform P01116-2 G12V): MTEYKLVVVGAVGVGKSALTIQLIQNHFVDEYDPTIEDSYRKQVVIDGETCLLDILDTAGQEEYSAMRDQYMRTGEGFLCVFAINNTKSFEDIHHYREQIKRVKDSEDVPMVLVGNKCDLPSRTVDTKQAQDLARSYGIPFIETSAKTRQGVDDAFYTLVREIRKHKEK

[5] = target: KRas G13D (Homo sapiens, UniProt P01116, G13D); assay type: binding; conditions: for inhibition at 0.01 µM: single point, 10 nM compound, read-out: Binding to KRas (% inhibition at 10 nM) G13D
Sequence of KRas G13D (P01116 1-169 isoform P01116-2 G13D): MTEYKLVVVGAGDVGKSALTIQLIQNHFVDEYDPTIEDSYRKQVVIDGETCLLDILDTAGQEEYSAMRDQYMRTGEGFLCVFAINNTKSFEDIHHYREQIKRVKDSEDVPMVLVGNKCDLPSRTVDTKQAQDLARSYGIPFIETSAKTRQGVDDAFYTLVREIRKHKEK

[6] = target: KRas G12R (Homo sapiens, UniProt P01116, G12R); test: biochemical; conditions: Binding to KRas (IC50 nM) G12R, TR-FRET displacement, KRas G12R
Sequence of KRas G12R (P01116 1-169 isoform P01116-2 G12R): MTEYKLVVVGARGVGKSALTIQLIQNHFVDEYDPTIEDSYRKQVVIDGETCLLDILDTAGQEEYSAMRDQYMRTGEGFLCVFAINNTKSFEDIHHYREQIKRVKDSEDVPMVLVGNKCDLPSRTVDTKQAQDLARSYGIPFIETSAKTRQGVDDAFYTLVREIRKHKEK

[7] = system: HCT116 cells; test: Inhibition of KRas-mediated phosphorylation of ERK (Cisbio HTRF pERK), HCT116 cells; assay type: cell-based; conditions: Homo sapiens; for inhibition at 0.1 µM: HCT-116, single point at 100 nM, 3 hrs compound incubation
[8] = target: KRas G12A (Homo sapiens, UniProt P01116, G12A); assay type: binding; conditions: for inhibition at 0.01 µM: single point, 10 nM compound, read-out: Binding to KRas (% inhibition at 10 nM) G12A
Sequence of KRas G12A (P01116 1-169 isoform P01116-2 G12A): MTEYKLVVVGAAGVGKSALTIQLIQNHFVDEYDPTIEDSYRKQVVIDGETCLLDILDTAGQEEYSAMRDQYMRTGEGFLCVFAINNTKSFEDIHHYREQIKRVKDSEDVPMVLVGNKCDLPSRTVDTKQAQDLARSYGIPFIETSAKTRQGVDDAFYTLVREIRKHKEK

[9] = system: ASPC1 cells; test: Inhibition of KRas-mediated phosphorylation of ERK (Cisbio HTRF pERK), ASPC1 cells; assay type: cell-based; conditions: Homo sapiens, AsPC-1 cells; for IC50: ASPC1, 3 h, 3 hr compound incubation, Cisbio pERK HTRF; for inhibition at 0.1 µM: ASPC1, single point at 100 nM, 3 hrs compound incubation
[10] = target: KRas Q61H (Homo sapiens, UniProt P01116, Q61H); test: KRas binding assay (TR-FRET displacement), KRas Q61H; conditions: for inhibition at 0.01 µM: single point, 10 nM compound
Sequence of KRas Q61H (P01116 1-169 isoform P01116-2 Q61H): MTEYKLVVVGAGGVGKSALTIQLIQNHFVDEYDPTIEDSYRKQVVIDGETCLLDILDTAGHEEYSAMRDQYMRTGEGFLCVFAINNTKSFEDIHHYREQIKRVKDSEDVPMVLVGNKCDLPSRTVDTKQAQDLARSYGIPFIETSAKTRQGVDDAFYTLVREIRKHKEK

[11] = target: KRas G12S (Homo sapiens, UniProt P01116, G12S); assay type: binding; conditions: for inhibition at 0.01 µM: single point, 10 nM compound, read-out: Binding to KRas (% inhibition at 10 nM) G12S
Sequence of KRas G12S (P01116 1-169 isoform P01116-2 G12S): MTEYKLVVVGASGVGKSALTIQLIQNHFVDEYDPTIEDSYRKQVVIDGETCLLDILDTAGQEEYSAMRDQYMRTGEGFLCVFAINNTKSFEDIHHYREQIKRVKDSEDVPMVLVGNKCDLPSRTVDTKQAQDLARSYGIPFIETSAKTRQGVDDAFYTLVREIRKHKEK

[12] = system: MKN1 cells; test: Inhibition of KRas-mediated phosphorylation of ERK (Cisbio HTRF pERK), MKN1 cells; assay type: cell-based; conditions: Homo sapiens, MKN-1, 3 hour compound incubation, Cisbio pERK HTRF
Method in brief: (§1)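 Day 1: 6,000 cells/well plated, RPMI + 10% FBS.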

[13] = target: KRas G12C (Homo sapiens, UniProt P01116, G12C); assay type: binding; conditions: for inhibition at 0.01 µM: single point, 10 nM compound, read-out: Binding to KRas (% inhibition at 10 nM) G12C
Sequence of KRas G12C (P01116 1-169 isoform P01116-2 G12C): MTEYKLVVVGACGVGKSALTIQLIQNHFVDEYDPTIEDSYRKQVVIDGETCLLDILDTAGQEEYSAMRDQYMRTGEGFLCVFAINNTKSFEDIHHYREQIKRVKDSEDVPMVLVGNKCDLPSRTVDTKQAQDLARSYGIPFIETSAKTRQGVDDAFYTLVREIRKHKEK

[14] = system: PSN1 cells; test: Inhibition of KRas-mediated phosphorylation of ERK (Cisbio HTRF pERK), PSN1 cells; assay type: cell-based; conditions: Homo sapiens, PSN1, 3 h, 3 hour compound incubation, Cisbio pERK HTRF
Method in brief: as §1

[15] = target: KRas WT (Homo sapiens, UniProt P01116); test: KRas binding assay (TR-FRET displacement), KRas WT; conditions: for inhibition at 0.01 µM: single point, 10 nM compound
Sequence of KRas WT (P01116 1-169 isoform P01116-2): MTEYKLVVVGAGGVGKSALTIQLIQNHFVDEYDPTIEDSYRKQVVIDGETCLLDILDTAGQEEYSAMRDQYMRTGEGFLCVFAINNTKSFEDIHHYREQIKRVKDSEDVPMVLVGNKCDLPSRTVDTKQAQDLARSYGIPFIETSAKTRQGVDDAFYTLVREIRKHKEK

[16] = system: H460 cells; test: Inhibition of KRas-mediated phosphorylation of ERK (Cisbio HTRF pERK), H460 cells; assay type: cell-based; conditions: Homo sapiens; for inhibition at 0.1 µM: NCI-H460, single point at 100 nM, 3 hrs compound incubation; for IC50: NCI-H460, 3 h, 3 hr compound incubation, Cisbio pERK HTRF
[17] = system: H358 cells; test: Inhibition of KRas-mediated phosphorylation of ERK (Cisbio HTRF pERK), H358 cells; assay type: cell-based; conditions: Homo sapiens; for inhibition at 0.1 µM: NCI-H358, single point at 100 nM, 3 hrs compound incubation

IC50 [1]	IC50 [2]	IC50 [4]	inhibition at 0.01 µM [5]	IC50 [6]	inhibition at 0.01 µM [8]	IC50 [9]	inhibition at 0.01 µM [10]	inhibition at 0.01 µM [11]	IC50 [12]	inhibition at 0.01 µM [13]	IC50 [14]	inhibition at 0.01 µM [15]	IC50 [3]	Compound	inhibition at 0.1 µM [1]	inhibition at 0.1 µM [3]	inhibition at 0.1 µM [7]	inhibition at 0.1 µM [9]	inhibition at 0.1 µM [16]	inhibition at 0.1 µM [17]	also measured
55 nM	< 2 nM	< 2 nM	98%	< 2 nM	97%	31 nM	100%	99%	1.2 nM	99%	> 10000 nM	98%		CCc1c(F)ccc2cc(O)cc(N3CCc4c(nc(OC[C@@]56CCCN5C[C@H](F)C6)nc4N4CCCn5nc(C(=O)N6CCN7CC(O)CC7C6)cc5C4)C3)c12 (stereo partly drawn) [Example 257, (5-(7-(8-ethyl-7-fluoro-3-hydroxynaphthalen-1-yl)-2-(((2R,7aS)-2-fluorotetrahydro-1H-pyrrolizin-7a(5H)-yl)methoxy)-5,6,7,8-tetrahydropyrido[3,4-d]pyrimidin-4-yl)-5,6,7,8-tetrahydro-4H-pyrazolo[1,5-a][1,4]diazepin-2-yl)(7-hydroxyhexahydropyrrolo[1,2-a]pyrazin-2(1H)-yl)methanone]	36%	35%	8%	77%	21%	95%	
287 nM	< 2 nM	< 2 nM	96%	< 2 nM	94%	32 nM	96%	98%	3.3 nM	97%	3940 nM	94%		CCc1c(F)ccc2cc(O)cc(N3CCc4c(nc(OC[C@@]56CCCN5C[C@H](F)C6)nc4N4CCCn5nc(C(=O)N6CCN7CCC6C7)cc5C4)C3)c12 (stereo partly drawn) [Example 259, (1,4-diazabicyclo[3.2.1]octan-4-yl)(5-(7-(8-ethyl-7-fluoro-3-hydroxynaphthalen-1-yl)-2-(((2R,7aS)-2-fluorotetrahydro-1H-pyrrolizin-7a(5H)-yl)methoxy)-5,6,7,8-tetrahydropyrido[3,4-d]pyrimidin-4-yl)-5,6,7,8-tetrahydro-4H-pyrazolo[1,5-a][1,4]diazepin-2-yl)methanone]	29%	6%	-11%	79%	14%	66%	
8 nM	< 2 nM	< 2 nM	98%	< 2 nM	97%	2 nM	98%	99%	29.2 nM	99%	> 10000 nM	98%	53 nM	CCc1c(F)ccc2cc(O)cc(N3CCc4c(nc(OC[C@@]56CCCN5C[C@H](F)C6)nc4N4CCCn5nc(C(=O)N6CC7CCC6CN7C)cc5C4)C3)c12 (stereo partly drawn) [Example 260, (5-(7-(8-ethyl-7-fluoro-3-hydroxynaphthalen-1-yl)-2-(((2R,7aS)-2-fluorohexahydro-1H-pyrrolizin-7a-yl)methoxy)-5,6,7,8-tetrahydropyrido[3,4-d]pyrimidin-4-yl)-5,6,7,8-tetrahydro-4H-pyrazolo[1,5-a][1,4]diazepin-2-yl)(5-methyl-2,5-diazabicyclo[2.2.2]octan-2-yl)methanone]	54%	73%	29%	98%	38%	97%	IC50 ([7]; HCT-116, 3 h, 3 hr compound incubation, Cisbio pERK HTRF): 151 nM; IC50 [16]: 102 nM; IC50 ([17]; NCI-H358, 3 h, 3 hr compound incubation, Cisbio pERK HTRF): 17 nM
124 nM	4 nM	4 nM	61%	3 nM	54%	55 nM	51%	70%	76.1 nM	78%	> 10000 nM	53%		CCc1c(F)ccc2cc(O)cc(N3CCc4c(nc(OC[C@@]56CCCN5C[C@H](F)C6)nc4N4CCCn5nc(NC)c(C)c5C4)C3)c12 [Example 376, 5-ethyl-6-fluoro-4-(2-(((2R,7aS)-2-fluorohexahydro-1H-pyrrolizin-7a-yl)methoxy)-4-(3-methyl-2-(methylamino)-7,8-dihydro-4H-pyrazolo[1,5-a][1,4]diazepin-5(6H)-yl)-5,6-dihydropyrido[3,4-d]pyrimidin-7(8H)-yl)naphthalen-2-ol]		34%				70%	IC50 [16]: 112 nM
194 nM	< 2 nM	2 nM		6 nM		106 nM			480 nM		> 10000 nM		285 nM	CCc1c(F)ccc2cccc(N3CCc4c(nc(OC[C@@]56CCCN5C[C@H](F)C6)nc4N4CCCn5nc(C(=O)N(C)C)cc5C4)C3)c12 [Example 481, 5-(7-(8-ethyl-7-fluoronaphthalen-1-yl)-2-(((2R,7aS)-2-fluorohexahydro-1H-pyrrolizin-7a-yl)methoxy)-5,6,7,8-tetrahydropyrido[3,4-d]pyrimidin-4-yl)-N,N-dimethyl-5,6,7,8-tetrahydro-4H-pyrazolo[1,5-a][1,4]diazepine-2-carboxamide]			8%		-1%		IC50 ([5]; TR-FRET displacement, read-out: Binding to KRas (IC50 nM) G13D): 15 nM; IC50 ([8]; TR-FRET displacement, read-out: Binding to KRas (IC50 nM) G12A): 7 nM; IC50 ([10]; TR-FRET displacement): 13 nM; IC50 ([11]; TR-FRET displacement, read-out: Binding to KRas (IC50 nM) G12S): 5 nM; IC50 ([13]; TR-FRET displacement, read-out: Binding to KRas (IC50 nM) G12C): 4 nM; IC50 ([15]; TR-FRET displacement): 11 nM

Compound	IC50 [1]	IC50 [2]	IC50 [4]	inhibition at 0.01 µM [5]	IC50 [6]	inhibition at 0.01 µM [8]	IC50 [9]	inhibition at 0.01 µM [10]	inhibition at 0.01 µM [11]	IC50 [12]	inhibition at 0.01 µM [13]	IC50 [14]	inhibition at 0.01 µM [15]	IC50 [3]	inhibition at 0.1 µM [1]	inhibition at 0.1 µM [3]	inhibition at 0.1 µM [7]	inhibition at 0.1 µM [9]	inhibition at 0.1 µM [16]	inhibition at 0.1 µM [17]	also measured
CCc1c(F)ccc2cc(O)cc(N3CCc4c(nc(OC[C@@]56CCCN5C[C@H](F)C6)nc4N4CCCn5nc(C(=O)N6C7CCC6CNC7)cc5C4)C3)c12 [Example 258, 3,8-diazabicyclo[3.2.1]octan-8-yl(5-(7-(8-ethyl-7-fluoro-3-hydroxynaphthalen-1-yl)-2-(((2R,7aS)-2-fluorohexahydro-1H-pyrrolizin-7a-yl)methoxy)-5,6,7,8-tetrahydropyrido[3,4-d]pyrimidin-4-yl)-5,6,7,8-tetrahydro-4H-pyrazolo[1,5-a][1,4]diazepin-2-yl)methanone]	24 nM	< 2 nM	< 2 nM	98%	< 2 nM	98%	29 nM	97%	99%	5.4 nM	100%	8640 nM	97%		55%	42%	3%	79%	24%	95%	
